Where “and” joins values, the source holds several entries; their conditions need not be identical. Equal entries are not always repeated. Where two headings read alike, the source gives them in different places. Where no end group is shown, it is not given here.
What was measured:
[1] = system: CD4+ PBMC; type: cell-based, human; details: IFNγ ELISPOT, CD8-depleted; for Human influenza epitope-specific immune response, donor 3501: PBMC rested five days
[2] = target: T1, DRB1*0101 (Homo sapiens, UniProt P01903+P01911, A100R/D57E/F55L/F60I/F76Y/I96L/L162R/M171V/P40L/Q125E/R42F/V115G/Y59C); test: biochemical; type: binding
T1 construct: made in house; host or cells: EBV-transformed homozygous human B cell lines, transfected fibroblasts or single-allele 721.221 transfectants

[3] = target: DRB1*0404 (Homo sapiens, UniProt P01903+P01911, A100R/A169T/F76Y/I96L/K127E/L162R/M171V/N62H/P40V/Q125Y/R42H/S133A/S149N/S66Y/V209L/W38E); test: biochemical; type: binding; details: IC50 nM to purified HLA DRB1*0404
[4] = target: T2, DRB1*0401 (Homo sapiens, UniProt P01903+P01911, A100K/A169T/F76Y/I96L/K127E/L162R/M171V/N62H/P40V/Q125Y/R42H/S133A/S149N/S66Y/V115G/V209L/W38E); test: biochemical; type: binding; details: read-out: IC50 nM to purified HLA DRB1*0401
T2 construct: made in house; host or cells: EBV-transformed homozygous human B cell lines, transfected fibroblasts or single-allele 721.221 transfectants

[5] = target: DRB1*0405 (Homo sapiens, UniProt P01903+P01911, A100R/A169T/D86S/F76Y/I96L/K127E/L162R/M171V/N62H/P40V/Q125Y/R42H/S133A/S149N/S66Y/V115G/V209L/W38E); test: biochemical; type: binding; details: read-out: IC50 nM to purified HLA DRB1*0405
[6] = target: DRB1*1302 (Homo sapiens, UniProt P01903+P01911, A100E/A169T/K41T/L162R/M171V/P40S/Q125H/Q178H/Q39Y/Q99D/R42S/S66N/T262R/V115G/W38E/Y61H); test: biochemical; type: binding; details: read-out: IC50 nM to purified HLA DRB1*1302
[7] = five day expansion with peptide pool
[8] = IC50 nM to purified HLA DRB1*0101

Chain of DRB1*1302 (P01903 26-254 limits assumed, other chains not shown): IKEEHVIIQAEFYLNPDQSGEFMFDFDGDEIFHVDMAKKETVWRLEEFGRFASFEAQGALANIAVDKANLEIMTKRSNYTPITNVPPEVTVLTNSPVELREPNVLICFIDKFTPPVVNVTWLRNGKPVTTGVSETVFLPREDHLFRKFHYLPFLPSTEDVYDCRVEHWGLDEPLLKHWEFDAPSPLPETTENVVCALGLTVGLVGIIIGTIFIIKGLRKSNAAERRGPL

In the case of `CC[C@H](C)[C@H](NC(=O)[C@H](CC(C)C)NC(=O)[C@H](CCC(=O)O)NC(=O)[C@H](CCSC)NC(=O)[C@@H](NC(=O)[C@H](CCSC)NC(=O)[C@@H](NC(=O)CNC(=O)[C@@H](N)C(C)C)[C@@H](C)O)C(C)C)C(=O)N[C@@H](CCCNC(=N)N)C(=O)N[C@@H](CCSC)C(=O)N[C@H](C(=O)N[C@@H](CCCCN)C(=O)N[C@@H](CCCNC(=N)N)C(=O)NCC(=O)O)[C@@H](C)CC` [Flu.NP.189], the “Human influenza epitope-specific immune response, donor 753” value [1, 7] is reported as “Positive (Donors were considered positive for a peptide if the number of spots was over 3 times background as determined by responses to irrelevant peptides (non influenza))”, the “Human influenza epitope-specific immune response, donor 6018” value [1, 7] is reported as “Positive (Donors were considered positive for a peptide if the number of spots was over 3 times background as determined by responses to irrelevant peptides (non influenza))” and the “Human influenza epitope-specific immune response, donor AC08” value [1, 7] is reported as “Positive (Donors were considered positive for a peptide if the number of spots was over 3 times background as determined by responses to irrelevant peptides (non influenza))”.
`CC[C@H](C)[C@H](NC(=O)[C@H](CC(C)C)NC(=O)[C@H](C)NC(=O)[C@H](CO)NC(=O)[C@H](CCCNC(=N)N)NC(=O)[C@H](C)NC(=O)[C@H](CC(C)C)NC(=O)[C@H](Cc1ccccc1)NC(=O)[C@@H](NC(=O)[C@H](CC(C)C)NC(=O)[C@@H](N)CC(=O)O)[C@@H](C)CC)C(=O)N[C@@H](CC(C)C)C(=O)N[C@@H](CCCNC(=N)N)C(=O)NCC(=O)N[C@@H](CO)C(=O)O` [Flu.NP.258] was tested, and the “Human influenza epitope-specific immune response, donor 6018” value [1, 7] was “Positive (Donors were considered positive for a peptide if the number of spots was over 3 times background as determined by responses to irrelevant peptides (non influenza))”.
`CC[C@H](C)[C@H](NC(=O)[C@H](CCC(N)=O)NC(=O)CNC(=O)[C@H](C)N)C(=O)N[C@@H](CO)C(=O)N[C@H](C(=O)N[C@@H](CCC(N)=O)C(=O)N1CCC[C@H]1C(=O)N[C@H](C(=O)N[C@@H](Cc1ccccc1)C(=O)N[C@@H](CO)C(=O)N[C@H](C(=O)N[C@@H](CCC(N)=O)C(=O)N[C@@H](CCCNC(=N)N)C(=O)N[C@@H](CC(N)=O)C(=O)O)C(C)C)[C@@H](C)O)C(C)C` [Flu.NP.406] was tested, and the “Human influenza epitope-specific immune response, donor 3501” value [1] was “Positive (Donors were considered positive for a peptide if the number of spots was over 3 times background as determined by responses to irrelevant peptides (non influenza))”.
`CC[C@H](C)[C@H](NC(=O)[C@H](C)NC(=O)CNC(=O)[C@@H](N)CCC(=O)O)C(=O)N[C@H](C(=O)NCC(=O)N[C@@H](CCC(=O)O)C(=O)N[C@H](C(=O)N[C@@H](CO)C(=O)N1CCC[C@H]1C(=O)N[C@@H](CC(C)C)C(=O)N1CCC[C@H]1C(=O)N[C@@H](CO)C(=O)N[C@@H](CC(C)C)C(=O)N1CCC[C@H]1C(=O)O)[C@@H](C)CC)C(C)C` [Flu.NS1.156] was tested, and the “Human influenza epitope-specific immune response, donor 3501” value [1] was “Positive (Donors were considered positive for a peptide if the number of spots was over 3 times background as determined by responses to irrelevant peptides (non influenza))”, the IC50 [2, 8] was 85 nM and the IC50 ([2]; IC50 nM to purified HLA DRB1*0101, Table 4) was 85 nM. For the same compound, the IC50 [3] was 13 nM, the IC50 ([4]; Table 4) was 48 nM and the IC50 [4] was 48 nM and 27 nM.
With `CSCC[C@H](NC(=O)[C@H](CO)NC(=O)[C@@H](NC(=O)[C@H](Cc1ccccc1)NC(=O)[C@H](CC(N)=O)NC(=O)[C@@H](N)C(C)C)C(C)C)C(=O)N[C@@H](CCC(=O)O)C(=O)N[C@@H](Cc1ccccc1)C(=O)N[C@@H](CO)C(=O)N[C@@H](CC(C)C)C(=O)N[C@H](C(=O)N[C@@H](CC(=O)O)C(=O)N1CCC[C@H]1C(=O)N[C@@H](CCCNC(=N)N)C(=O)N[C@@H](CC(C)C)C(=O)O)[C@@H](C)O` [Flu.PA.521] the IC50 [5] was 7700 nM.
With `CSCC[C@H](NC(=O)CNC(=O)[C@H](CCSC)NC(=O)[C@@H](N)CCSC)C(=O)N[C@@H](Cc1ccccc1)C(=O)N[C@@H](CC(N)=O)C(=O)N[C@@H](CCSC)C(=O)N[C@@H](CC(C)C)C(=O)N[C@@H](CO)C(=O)N[C@H](C(=O)N[C@H](C(=O)N[C@@H](CC(C)C)C(=O)NCC(=O)N[C@H](C(=O)N[C@@H](CO)C(=O)O)C(C)C)C(C)C)[C@@H](C)O` [Flu.PB1.411] the “Human influenza epitope-specific immune response, donor 3501” value [1] was “Positive (Donors were considered positive for a peptide if the number of spots was over 3 times background as determined by responses to irrelevant peptides (non influenza))”, the “Human influenza epitope-specific immune response, donor 716” value [1, 7] was “Positive (Donors were considered positive for a peptide if the number of spots was over 3 times background as determined by responses to irrelevant peptides (non influenza))” and the “Human influenza epitope-specific immune response, donor 753” value [1, 7] was “Positive (Donors were considered positive for a peptide if the number of spots was over 3 times background as determined by responses to irrelevant peptides (non influenza))”. For the same compound, the “Human influenza epitope-specific immune response, donor 6018” value [1, 7] was “Positive (Donors were considered positive for a peptide if the number of spots was over 3 times background as determined by responses to irrelevant peptides (non influenza))”.
In the case of `CC[C@H](C)[C@H](NC(=O)CNC(=O)[C@H](CCC(=O)O)NC(=O)[C@H](Cc1c[nH]cn1)NC(=O)[C@H](CC(N)=O)NC(=O)[C@@H]1CCCN1C(=O)[C@H](C)NC(=O)[C@H](CC(N)=O)NC(=O)[C@@H](NC(=O)[C@@H](NC(=O)[C@H](CC(C)C)NC(=O)[C@H](C)NC(=O)[C@H](Cc1ccccc1)NC(=O)[C@@H](N)CC(=O)O)[C@@H](C)CC)C(C)C)C(=O)N[C@@H](CCC(N)=O)C(=O)O` [Flu.PB1.449], the “Human influenza epitope-specific immune response, donor 3501” value [1] is reported as “Positive (Donors were considered positive for a peptide if the number of spots was over 3 times background as determined by responses to irrelevant peptides (non influenza))”.
`CSCC[C@H](NC(=O)[C@H](CO)NC(=O)[C@H](Cc1ccccc1)NC(=O)[C@H](CC(N)=O)NC(=O)[C@H](C)NC(=O)[C@@H](NC(=O)[C@H](Cc1ccccc1)NC(=O)CNC(=O)[C@@H](N)Cc1ccc(O)cc1)C(C)C)C(=O)N[C@@H](CCC(=O)O)C(=O)N[C@@H](CC(C)C)C(=O)N1CCC[C@H]1C(=O)N[C@@H](CO)C(=O)N[C@@H](Cc1ccccc1)C(=O)NCC(=O)O` [Flu.PB1.502] was tested, and the “Human influenza epitope-specific immune response, donor 3501” value [1] was “Positive (Donors were considered positive for a peptide if the number of spots was over 3 times background as determined by responses to irrelevant peptides (non influenza))”.
For `CC[C@H](C)[C@H](NC(=O)[C@H](CCCNC(=N)N)NC(=O)[C@H](C)NC(=O)[C@H](CCCNC(=N)N)NC(=O)[C@H](CO)NC(=O)[C@@H](N)C(C)C)C(=O)N[C@@H](CC(=O)O)C(=O)N[C@@H](C)C(=O)N[C@@H](CCCNC(=N)N)C(=O)N[C@H](C(=O)N[C@@H](CC(=O)O)C(=O)N[C@@H](Cc1ccccc1)C(=O)N[C@@H](CCC(=O)O)C(=O)N[C@@H](CO)C(=O)NCC(=O)O)[C@@H](C)CC` [Flu.PB1.722], the IC50 [5] was 3010 nM.
GSYFFGDNAEEYDN [Flu.NP.488] gave an IC50 [4] of 1950 nM and an IC50 [5] of 65 nM.
For MVAYMLERELVRKTR [Flu.PB2.205], the IC50 [6] was 2080 nM, the IC50 [2, 8] was 97 nM and the IC50 [4] was 166 nM. For the same compound, the IC50 [5] was 5540 nM.
